In this assay the test system is P388 leukemia ip, CD2F1 mice, survival T/C. The experiment in a line: NCI In Vivo Anticancer Drug Screen. Data for tumor model P388 Leukemia (intraperitoneal) in CD2F1 (CDF1) mice. The following applies: endpoint: median survival time, higher = longer survival. In a few lines: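 Mice carrying the transplanted tumor received test compound or vehicle. Survival was recorded in each group, and the value is the treated-group measurement divided by that of the vehicle-treated control group.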

The mark [1] stands for this setting: dose: 50.0 mg/kg/injection, schedule: Q01DX009 (ip), vehicle: Klucel (hydroxypropylcellulose) (HPC).
Where [2] appears, read: dose: 100.0 mg/kg/injection, schedule: Q01DX009 (ip), vehicle: Klucel (hydroxypropylcellulose) (HPC).
Where [3] appears, read: dose: 60.0 mg/kg/injection, schedule: Q01DX005 (ip), vehicle: Klucel (hydroxypropylcellulose) (HPC).
Where [4] appears, read: dose: 60.0 mg/kg/injection, schedule: Q01DX005 (ip), vehicle: saline with Tween-80.
[5] abbreviates: dose: 120.0 mg/kg/injection, schedule: Q01DX005 (ip), vehicle: saline with Tween-80.
[6] abbreviates: dose: 240.0 mg/kg/injection, schedule: Q01DX005 (ip), vehicle: saline with Tween-80.
Setting [7] is: dose: 50.0 mg/kg/injection, schedule: Q01DX009 (ip), vehicle: saline.
[8] abbreviates: dose: 100.0 mg/kg/injection, schedule: Q01DX009 (ip), vehicle: saline.
Setting [9] is: dose: 50.0 mg/kg/injection, schedule: Q01DX005 (ip), vehicle: saline with Tween-80.
Setting [10] is: dose: 120.0 mg/kg/injection, schedule: Q01DX005 (ip), vehicle: Klucel (hydroxypropylcellulose) (HPC).
Setting [11] is: dose: 200.0 mg/kg/injection, schedule: Q01DX009 (ip), vehicle: saline.
Setting [12] is: dose: 25.0 mg/kg/injection, schedule: Q01DX009 (ip), vehicle: saline.

Values joined by “and” are separate entries in the source; they are usually repeats but may differ in a detail not shown here. Equal entries are not always repeated. Toxic doses and inconclusive results are not listed.

Turning to `O=[N+]([O-])c1ccc(S(=O)(=O)C/C=C/CCl)c([N+](=O)[O-])c1`, the T/C was 113 % of control (dose: 12.5 mg/kg/injection, schedule: Q01DX009 (ip), vehicle: saline with Tween-80) and 90 % of control (dose: 25.0 mg/kg/injection, schedule: Q01DX009 (ip), vehicle: saline with Tween-80).

For the compound `CSc1nsc(SC)c1-c1ccc(Cl)cc1`, the T/C under setting [1] was 99 % of control; the T/C under setting [2] is 100 % of control; the T/C (dose: 200.0 mg/kg/injection, schedule: Q01DX009 (ip), vehicle: Klucel (hydroxypropylcellulose) (HPC)) was 92 % of control.

Consider `COc1cc(NS(C)(=O)=O)ccc1Nc1c2ccc(N(C)C)cc2nc2cc(N(C)C)ccc12`, for which the T/C is, setting by setting: (dose: 7.5 mg/kg/injection, schedule: Q01DX005 (ip), vehicle: Klucel (hydroxypropylcellulose) (HPC)) 162 % of control; (dose: 15.0 mg/kg/injection, schedule: Q01DX005 (ip), vehicle: Klucel (hydroxypropylcellulose) (HPC)) 168 % of control and 173 % of control; (dose: 30.0 mg/kg/injection, schedule: Q01DX005 (ip), vehicle: Klucel (hydroxypropylcellulose) (HPC)) 174 % of control and 182 % of control; under setting [3], 98 % of control and 86 % of control.

As to `CSCC(NP1(=O)SC(NN=C2CCCCC2)=NC1(C)C)C(=O)O` (stereo unspecified), the T/C is, setting by setting: under setting [4], 100 % of control; under setting [5], 100 % of control; under setting [6], 100 % of control.

For the compound `COc1ccc2c(c1OC)C(=O)N1CCc3cc4c(cc3C1C2C(=O)O)OCO4` (stereo unspecified), the T/C reads like this: (dose: 50.0 mg/kg/injection, schedule: Q04DX003 (ip), vehicle: distilled water + Tween-80) 100 % of control; (dose: 100.0 mg/kg/injection, schedule: Q04DX003 (ip), vehicle: distilled water + Tween-80) 109 % of control; (dose: 200.0 mg/kg/injection, schedule: Q04DX003 (ip), vehicle: distilled water + Tween-80) 100 % of control; (dose: 400.0 mg/kg/injection, schedule: Q04DX003 (ip), vehicle: distilled water + Tween-80) 104 % of control.

`O=C(O)CCCCCSCCCCCCSCCCCCC(=O)O`: the T/C reads like this: (dose: 50.0 mg/kg/injection, schedule: Q01DX005 (ip), vehicle: Klucel (hydroxypropylcellulose) (HPC)) 102 % of control; (dose: 100.0 mg/kg/injection, schedule: Q01DX005 (ip), vehicle: Klucel (hydroxypropylcellulose) (HPC)) 105 % of control; (dose: 200.0 mg/kg/injection, schedule: Q01DX005 (ip), vehicle: Klucel (hydroxypropylcellulose) (HPC)) 100 % of control.

Regarding `CC(C)C[CH2][Pb]([Cl])([CH2]CC(C)C)[CH2]CC(C)C`, the T/C by setting is: (dose: 0.06 mg/kg/injection, schedule: Q01DX009 (ip), vehicle: saline + alcohol) 103 % of control; (dose: 0.13 mg/kg/injection, schedule: Q01DX009 (ip), vehicle: saline + alcohol) 108 % of control; (dose: 0.25 mg/kg/injection, schedule: Q01DX009 (ip), vehicle: saline + alcohol) 105 % of control; (dose: 0.5 mg/kg/injection, schedule: Q01DX009 (ip), vehicle: saline + alcohol) 119 % of control; (dose: 1.0 mg/kg/injection, schedule: Q01DX009 (ip), vehicle: saline + alcohol) 118 % of control; (dose: 2.0 mg/kg/injection, schedule: Q01DX009 (ip), vehicle: saline) 111 % of control. The T/C reads like this: (dose: 4.0 mg/kg/injection, schedule: Q01DX009 (ip), vehicle: saline) 110 % of control; (dose: 8.0 mg/kg/injection, schedule: Q01DX009 (ip), vehicle: saline) 100 % of control.

On to `N=C(N)SCc1cccc(-c2nc3ccccc3c(=O)o2)c1`, for which the T/C was 102 % of control under setting [7] and 113 % of control under setting [8].

For the compound `[Co].c1c[nH]cn1.c1c[nH]cn1.c1c[nH]cn1.c1c[nH]cn1.c1c[nH]cn1.c1c[nH]cn1`, the T/C was 103 % of control (dose: 12.5 mg/kg/injection, schedule: Q01DX005 (ip), vehicle: saline with Tween-80); 94 % of control (dose: 25.0 mg/kg/injection, schedule: Q01DX005 (ip), vehicle: saline with Tween-80); 103 % of control and 107 % of control under setting [9].

`O=C(NCCS(=O)(=O)O)C1CCCN1` (stereo unspecified): the T/C by setting is: (dose: 60.0 mg/kg/injection, schedule: Q01DX005 (ip), vehicle: saline) 100 % of control; (dose: 120.0 mg/kg/injection, schedule: Q01DX005 (ip), vehicle: saline) 100 % of control; (dose: 240.0 mg/kg/injection, schedule: Q01DX005 (ip), vehicle: saline) 99 % of control.

For the compound `CC(=O)Nc1ccc([Se](N)=O)cc1` (stereo unspecified), the T/C was 89 % of control under setting [9]; 103 % of control (dose: 100.0 mg/kg/injection, schedule: Q01DX005 (ip), vehicle: saline with Tween-80); 111 % of control (dose: 200.0 mg/kg/injection, schedule: Q01DX005 (ip), vehicle: saline with Tween-80).

With `C#Cc1cccc(NC(=O)c2ccc(Cl)cc2Cl)c1`, the T/C was 100 % of control under setting [3]; 104 % of control under setting [10]; 105 % of control (dose: 240.0 mg/kg/injection, schedule: Q01DX005 (ip), vehicle: Klucel (hydroxypropylcellulose) (HPC)).

For `O=C1c2ccccc2C(=O)N1C/C=C\c1ccccc1`, the T/C was 102 % of control (dose: 100.0 mg/kg/injection, schedule: Q01DX001 (ip), vehicle: saline); 102 % of control (dose: 200.0 mg/kg/injection, schedule: Q01DX001 (ip), vehicle: saline); 107 % of control (dose: 400.0 mg/kg/injection, schedule: Q01DX001 (ip), vehicle: saline).

Consider `COC(=O)c1nc2nnc(N)n2c(-c2ccc(Cl)cc2)c1C`, for which the T/C by setting is: under setting [4], 100 % of control; under setting [5], 101 % of control; under setting [6], 96 % of control.

With `c1ccc(-c2cnc3cccnc3n2)cc1`, the T/C was 100 % of control under setting [3] and 99 % of control under setting [10].

With `CC(C)(C)C1CCC=CC(=O)C1` (stereo unspecified), the T/C is 105 % of control (dose: 100.0 mg/kg/injection, schedule: Q04DX003 (ip), vehicle: Klucel (hydroxypropylcellulose) (HPC)) and 113 % of control (dose: 200.0 mg/kg/injection, schedule: Q04DX003 (ip), vehicle: Klucel (hydroxypropylcellulose) (HPC)).

Turning to `CCOC(=O)C1=C(Nc2ccc(F)cc2)C(=O)N(CC)C1`, the T/C runs as follows: under setting [4], 100 % of control; under setting [5], 102 % of control; under setting [6], 93 % of control.

On to `CCCCCCC[CH2][Sn]([CH2]CCCCCCC)([CH2]CCCCCCC)[O]C(C)=O`, for which the T/C is 97 % of control under setting [7], 100 % of control under setting [8] and 94 % of control under setting [11].

For the compound `NC(CCCCNC(=O)OCCCCCOC(=O)NCCCCC(N)C(=O)O)C(=O)O` (stereo unspecified), the T/C is, setting by setting: (dose: 50.0 mg/kg/injection, schedule: Q01DX009 (ip), vehicle: suspension in saline) 95 % of control; (dose: 100.0 mg/kg/injection, schedule: Q01DX009 (ip), vehicle: suspension in saline) 106 % of control; (dose: 200.0 mg/kg/injection, schedule: Q01DX009 (ip), vehicle: suspension in saline) 104 % of control.

Consider `O=C(O)C(O)CBr` (stereo unspecified), for which the T/C (dose: 12.5 mg/kg/injection, schedule: Q01DX009 (ip), vehicle: saline) was 100 % of control; the T/C under setting [12] is 95 % of control; the T/C (dose: 25.0 mg/kg/injection, schedule: Q04DX003 (ip), vehicle: saline) is 91 % of control; the T/C under setting [7] is 95 % of control; the T/C (dose: 50.0 mg/kg/injection, schedule: Q04DX003 (ip), vehicle: saline) was 87 % of control.

`CN1C=C(c2ccccc2)C=C(c2ccccc2)C1S(=O)(=O)O` (stereo unspecified): the T/C (dose: 12.5 mg/kg/injection, schedule: Q01DX005 (ip), vehicle: saline + Tween-80 + alcohol) is 99 % of control and the T/C (dose: 25.0 mg/kg/injection, schedule: Q01DX005 (ip), vehicle: saline + Tween-80 + alcohol) was 96 % of control.

On to `C=C1C(=O)OC2C=CCCCC12` (stereo unspecified), for which the T/C is 105 % of control (dose: 50.0 mg/kg/injection, schedule: Q01DX001 (ip), vehicle: saline with Tween-80) and 102 % of control (dose: 100.0 mg/kg/injection, schedule: Q01DX001 (ip), vehicle: saline with Tween-80).

Take `CC(Cl)CN(CC(C)Cl)c1ccc(-c2ccccc2)cc1` (stereo unspecified): the T/C is, setting by setting: under setting [1], 105 % of control and 109 % of control; under setting [2], 124 % of control.

On to `CC(N)C(=O)NC(C(=O)O)C(C)O` (stereo unspecified), for which the T/C under setting [12] is 100 % of control; the T/C under setting [7] was 102 % of control; the T/C under setting [8] was 100 % of control; the T/C under setting [11] is 99 % of control; the T/C (dose: 400.0 mg/kg/injection, schedule: Q01DX009 (ip), vehicle: saline) was 102 % of control.

These data come from PubChem BioAssay AID330 (DTP/NCI, 2004).
